Measurements taken from patent US7153851B2, “10-(3-cyclopropylaminomethyl-1-pyrrolidinyl)pyridobenzoxazinecarboxylic acid derivative effective against resistant bacterium” (Kyorin Pharmaceutical Co., Ltd., priority 2002, dated 2006).
Converted amounts (≈) assume the structure as drawn.

Key:
Experiment in all cases: In vitro antibacterial activity (MIC), agar dilution method according to NCCLS
Assay type in all cases: cell-based
S. pneumoniae Type III = conditions: Muller-Hinton agar medium containing 5% defibrinated equine blood
S. aureus Smith = conditions: Muller-Hinton agar medium
Description: (§1) The in vitro antibacterial activity (as measured by the minimum inhibitory concentration (MIC)) was determined for each of the compounds of the present invention by the agar dilution method according to NCCLS (National Committee for Clinical Laboratory Standard (1997), Methods for Dilution Antibacterial Susceptibility Tests for Bacteria that grow Aerobically-Forth Edition: Approved Standard m7-A4. NCCLS, Villanova, Pa.), which involved the use of Muller-Hinton agar medium.

[1] = system: S. aureus MR5867 (methicillin-resistant S. aureus); conditions: Muller-Hinton agar medium
Description: as §1

[2] = system: S. aureus MS16401 (quinolone-resistant S. aureus); conditions: Muller-Hinton agar medium
Description: as §1

E. faecalis IID682 = system: E. faecalis IID682; parameters: unit not given here; conditions: Muller-Hinton agar medium containing 5% defibrinated equine blood

| Compound | MIC (S. pneumoniae Type III) | MIC (S. aureus Smith) | MIC [1] | MIC [2] [µg/mL] | MIC (E. faecalis IID682) |
| --- | --- | --- | --- | --- | --- |
| O=C(O)c1cn2c3c(c(N4C[C@H](CNC5CC5)[C@H](F)C4)c(F)cc3c1=O)OC[C@@H]2CF [Example 20, (3R)-10-[(3S,4S)-3-cyclopropylaminomethyl-4-fluoro-1-pyrrolidinyl]-9-fluoro-3-fluoromethyl-2,3-dihydro-7-oxo-7H-pyrido[1,2,3-d.e][1,4]benzoxazine-6-carboxylic acid] | 0.016 | 0.008 | 0.016 | 63 (≈ 144 µM) | 0.063 |
| C[C@H]1CN(c2c(F)cc3c(=O)c(C(=O)O)cn4c3c2OC[C@@H]4CF)C[C@@H]1CNC1CC1 [Example 17, (3R)-10-[(3S,4R)-3-cyclopropylaminomethyl-4-methyl-1-pyrrolidinyl]-9-fluoro-3-fluoromethyl-2,3-dihydro-7-oxo-7H-pyrido[1,2,3-d,e][1,4]benzoxazine-6-carboxylic acid] | 0.016 | 0.008 | 0.008 | 63 (≈ 145 µM) | 0.063 |
| C[C@@H]1CN(c2c(F)cc3c(=O)c(C(=O)O)cn4c3c2OC[C@@H]4C)C[C@@H]1CNC1CC1 [Example 14, (3S)-10-[(3S,4S)-3-cyclopropylaminomethyl-4-methyl-1-pyrrolidinyl]-9-fluoro-2,3-dihydro-3-methyl-7-oxo-7H-pyrido[1,2,3-d,e][1,4]benzoxazine-6-carboxylic acid] | ≦0.008 mg/mL | 0.008 | 0.008 | 31 (≈ 74.6 µM) | 0.063 |
| O=C(O)c1cn2c3c(c(N4CC[C@@H](CNC5CC5)C4)c(F)cc3c1=O)OC[C@@H]2CO [Example 6, (3S)-10-[(3S)-3-cyclopropylaminomethyl-1-pyrrolidinyl]-9-fluoro-2,3-dihydro-3-hydroxymethyl-7-oxo-7H-pyrido[1,2,3-d,e][1,4]benzoxazine-6-carboxylic acid] | 0.125 | 0.25 | 0.25 | 4000 (≈ 9580 µM) | 0.25 |
| C[C@H]1COc2c(N3C[C@H](NC4CC4)[C@@H](F)C3)c(F)cc3c(=O)c(C(=O)O)cn1c23 [Example 21, (3S)-10-[(3S,4S)-3-cyclopropylamino-4-fluoro-1-pyrrolidinyl]-9-fluoro-2,3-dihydro-3-methyl-7-oxo-7H-pyrido[1,2,3-d.e][1,4]benzoxazine-6-carboxylic acid] | 0.016 | 0.016 | 0.016 | 31 (≈ 76.5 µM) | 0.063 |
| COC[C@H]1COc2c(N3CC[C@@H](CNC4CC4)C3)c(F)cc3c(=O)c(C(=O)O)cn1c23 [Example 4, (3S)-10-[(3S)-3-cyclopropylaminomethyl-1-pyrrolidinyl]-9-fluoro-2,3-dihydro-3-methoxymethyl-1-oxo-7H-pyrido[1,2,3-d,e][1,4]benzoxazine-6-carboxylic acid] | 0.125 | 0.031 | 0.031 | 500 (≈ 1160 µM) | 0.25 |
| CC(=O)OC[C@@H]1COc2c(N3CC[C@@H](CNC4CC4)C3)c(F)cc3c(=O)c(C(=O)O)cn1c23 [Example 5, (3S)-3-acetoxymethyl-10-[(3S)-3-cyclopropylaminomethyl-1-pyrrolidinyl]-9-fluoro-2,3-dihydro-7-oxo-7H-pyrido[1,2,3-d,e][1,4]benzoxazine-6-carboxylic acid] | 0.125 | 0.25 | 0.25 | 4000 (≈ 8710 µM) | 0.25 |
| C[C@@H]1CN(c2c(F)cc3c(=O)c(C(=O)O)cn4c3c2OC[C@@H]4CF)C[C@@H]1CNC1CC1 [Example 18, (3R)-10-[(3S,4S)-3-cyclopropylaminomethyl-4-methyl-1-pyrrolidinyl]-9-fluoro-3-fluoromethyl-2,3-dihydro-7-oxo-7H-pyrido[1,2,3-d,e][1,4]benzoxazine-6-carboxylic acid] | 0.016 | 0.008 | 0.016 | 63 (≈ 145 µM) | 0.063 |
| O=C(O)c1cn2c3c(c(N4CC[C@@H](CNC5CC5)C4)c(F)cc3c1=O)OC[C@@H]2CF [Example 1, (3R)-10-[(3S)-3-cyclopropylaminomethyl-1-pyrrolidinyl]-9-fluoro-3-fluoromethyl-2,3-dihydro-7-oxo-7H-pyrido[1,2,3-d,e][1,4]benzoxazine-6-carboxylic acid] | 0.032 | 0.016 | 0.016 | 125 (≈ 298 µM) | 0.063 |
| C[C@H]1CN(c2c(F)cc3c(=O)c(C(=O)O)cn4c3c2OC[C@@H]4C)C[C@H]1CNC1CC1 (relative stereo) [Example 13, (3S)-10-(cis-3-cyclopropylaminomethyl-4-methyl-1-pyrrolidinyl)-9-fluoro-2,3-dihydro-3-methyl-7-oxo-7H-pyrido[1,2,3-d,e][1,4]benzoxazine-6-carboxylic acid] | 0.031 | 0.008 | 0.008 | 31 (≈ 74.6 µM) | 0.125 |
| C[C@H]1CN(c2c(F)cc3c(=O)c(C(=O)O)cn4c3c2OC[C@@H]4C)C[C@H]1CNC1CC1 [Example 15, (3S)-10-[(3R,4R)-3-cyclopropylaminomethyl-4-methyl-1-pyrrolidinyl]-9-fluoro-2,3-dihydro-3-methyl-7-oxo-7H-pyrido[1,2,3-d,e][1,4]benzoxazine-6-carboxylic acid] | 0.063 | 0.031 | 0.031 | 63 (≈ 152 µM) | 0.125 |
| C[C@@H]1CN(c2c(F)cc3c(=O)c(C(=O)O)cn4c3c2OC[C@@H]4C)C[C@H]1CNC1CC1 [Example 12, (3S)-10-[(3R,4S)-3-cyclopropylaminomethyl-4-methyl-1-pyrrolidinyl]-9-fluoro-2,3-dihydro-3-methyl-7-oxo-7H-pyrido[1,2,3-d,e][1,4]benzoxazine-6-carboxylic acid] | 0.063 | 0.016 | 0.016 | 63 (≈ 152 µM) | 0.25 |
| O=C(O)c1cn2c3c(c(N4CC[C@H](CNC5CC5)C4)c(F)cc3c1=O)OC[C@@H]2CF [Example 2, (3R)-10-[(3R)-3-cyclopropylaminomethyl-1-pyrrolidinyl]-9-fluoro-3-fluoromethyl-2,3-dihydro-7-oxo-7H-pyrido[1,2,3-d,e][1,4]benzoxazine-6-carboxylic acid] | 0.125 | 0.031 | 0.016 | 250 (≈ 596 µM) | 0.25 |
| C[C@H]1COc2c(N3C[C@@H](CNC4CC4)[C@H](C(F)(F)F)C3)c(F)cc3c(=O)c(C(=O)O)cn1c23 (relative stereo) [Example 19, (3S)-10-(trans-3-cyclopropylaminomethyl-4-trifluoromethyl-1-pyrrolidinyl)-9-fluoro-2,3-dihydro-3-methyl-7-oxo-7H-pyrido[1,2,3-d,e][1,4]benzoxazine-6-carboxylic acid] | 0.125 | 0.016 | 0.016 | 125 (≈ 266 µM) | 0.25 |
| C[C@@H]1CN(c2c(F)cc3c(=O)c(C(=O)O)cn4c3c2OC[C@@H]4CF)C[C@H]1CNC1CC1 (relative stereo) [Example 16, (3R)-10-(trans-3-cyclopropylaminomethyl-4-methyl-1-pyrrolidinyl)-9-fluoro-3-fluoromethyl-2,3-dihydro-7-oxo-7H-pyrido[1,2,3-d,e][1,4]benzoxazine-6-carboxylic acid] | 0.032 | 0.016 | 0.016 | 63 (≈ 145 µM) | 0.063 |
| C[C@@H]1CN(c2c(F)cc3c(=O)c(C(=O)O)cn4c3c2OC[C@@H]4C)C[C@H]1CNC1CC1 (relative stereo) [Example 10, (3S)-10-(trans-3-cyclopropylaminomethyl-4-methyl-1-pyrrolidinyl)-9-fluoro-2,3-dihydro-3-methyl-7-oxo-7H-pyrido[1,2,3-d,e][1,4]benzoxazine-6-carboxylic acid] | 0.031 | 0.016 | 0.016 | 63 (≈ 152 µM) | 0.125 |
| C[C@H]1CN(c2c(F)cc3c(=O)c(C(=O)O)cn4c3c2OC[C@@H]4C)C[C@@H]1CNC1CC1 [Example 11, (3S)-10-[(3S,4R)-3-cyclopropylaminomethyl-4-methyl-1-pyrrolidinyl]-9-fluoro-2,3-dihydro-3-methyl-7-oxo-7H-pyrido[1,2,3-d,e][1,4]benzoxazine-6-carboxylic acid] | 0.016 | 0.008 | 0.008 | 31 (≈ 74.6 µM) | 0.063 |
| C=C1COc2c(N3CC[C@@H](CNC4CC4)C3)c(F)cc3c(=O)c(C(=O)O)cn1c23 [Example 7, 10-[(3S)-3-cyclopropylaminomethyl-1-pyrrolidinyl]-9-fluoro-2,3-dihydro-3-methylene-7-oxo-7H-pyrido[1,2,3-d,e][1,4]benzoxazine-6-carboxylic acid] | 0.016 | ≦0.008 mg/mL | ≦0.008 mg/mL | 63 (≈ 158 µM) | 0.125 |
